The source of these data is PMC3691235, “Discovery of a Novel Dual Fungal CYP51/Human 5-Lipoxygenase Inhibitor: Implications for Anti-Fungal Therapy” (PLoS ONE, 2013).

A value given as a limit tells only on which side of the number the result lay.

The term IC50 denotes the concentration that gives 50% inhibition.

The target in assay [1] is T1, Human leukocyte 5-lipoxygenase (Homo sapiens, UniProt P09917).
T1 construct: made in house
T1 sequence (P09917 1-674): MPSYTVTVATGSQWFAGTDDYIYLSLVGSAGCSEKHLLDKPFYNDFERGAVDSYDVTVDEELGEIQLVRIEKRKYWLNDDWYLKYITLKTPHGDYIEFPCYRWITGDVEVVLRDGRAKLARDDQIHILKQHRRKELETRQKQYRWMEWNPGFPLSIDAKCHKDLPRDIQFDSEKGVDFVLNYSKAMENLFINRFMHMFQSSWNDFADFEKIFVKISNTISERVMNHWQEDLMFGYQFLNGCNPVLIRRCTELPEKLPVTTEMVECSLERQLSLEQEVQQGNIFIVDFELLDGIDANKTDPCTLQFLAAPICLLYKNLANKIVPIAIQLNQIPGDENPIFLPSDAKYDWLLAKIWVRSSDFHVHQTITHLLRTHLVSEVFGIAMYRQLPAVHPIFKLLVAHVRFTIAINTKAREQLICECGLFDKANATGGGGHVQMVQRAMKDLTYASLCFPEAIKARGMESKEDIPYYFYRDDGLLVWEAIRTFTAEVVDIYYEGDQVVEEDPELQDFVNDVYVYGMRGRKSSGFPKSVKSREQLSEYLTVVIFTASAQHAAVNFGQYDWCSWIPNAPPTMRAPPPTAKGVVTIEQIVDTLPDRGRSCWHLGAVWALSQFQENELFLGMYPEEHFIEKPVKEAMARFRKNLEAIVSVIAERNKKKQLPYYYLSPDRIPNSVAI
The experiment in a line: Lipoxygenase UV-based inhibitor assay, 5-LOX. As to conditions: for IC50: UV-based assay, 10 µM AA, pH 7.3, crude enzyme, error = SD, read-out: 5-LOX IC50. The class given is biochemical. On the procedure: Human leukocyte 5-lipoxygenase was expressed as a non-tagged protein and used as a crude ammonium sulfate protein fraction, as published previously.
Inhibitor potencies were evaluated through use of the standard UV-based inhibitor assay. The initial rates were determined by following the formation of the conjugated diene product at 234 nm (ε = 25,000 M^−1 cm^−1) with a Perkin-Elmer Lambda 40 UV/Vis spectrophotometer at one substrate concentration and varying inhibitor concentrations. All reactions were 2 mL in volume and constantly stirred using a magnetic stir bar at room temperature (23°C), with the enzyme specific buffer conditions outlined in Table 1. The substrate used for the various isozymes was arachidonic acid (AA) for 5-LOX, 12-LOX, and 15-LOX-2 and linoleic acid (LA) for 15-LOX-1, where concentrations were quantitatively determined by allowing the enzymatic reaction to go to completion. IC50 values were obtained by determining the initial rate at various inhibitor concentrations and plotting them against inhibitor concentration, followed by a hyperbolic saturation curve fit. The data used for the saturation curves were performed in duplicate or triplicate, depending on the quality of the data. […] Inhibitors were stored at −20°C in DMSO. […] The solvent isotope effect of the inhibitor IC50 was investigated utilizing the same conditions and methods as stated above. The pH of the buffered D2O was determined as reported previously.

The next assay has as its target T2, 5-LOX (Homo sapiens, UniProt P09917).
T2 construct: made in house
T2 sequence (P09917 1-674): T1 sequence (P09917 1-674)
In words: Pseudoperoxidase activity assay. The class given is biochemical. As to conditions: 10 µM inhibitor, 10 µM 13-HPODE; positive = loss of greater than 40% of product absorption at 234 nm. Here is the method:
The reductive properties of the inhibitors were determined by monitoring the pseudoperoxidase activity of lipoxygenase in the presence of the inhibitor and 13-(S)-hydroperoxyoctadecadienoic acid (13-HPODE). Activity is monitored by direct measurement of the product degradation following the decrease of absorbance at 234 nm using a Perkin-Elmer Lambda 40 UV/Vis spectrometer (50 mM Sodium Phosphate (pH 7.4), 0.3 mM CaCl2, 0.1 mM EDTA, 0.01% Triton X100, 10 µM 13-HPODE). All reactions were performed in 2 mL of buffer and constantly stirred with a rotating stir bar (23°C). Reaction was initiated by addition of 10 µM inhibitor (a 1 to 1 ratio to 13-HPODE), and a positive result for activity reflected a loss of greater than 40% of product absorption at 234 nm.

For `CC(=O)N1CCN(c2ccc(NCc3ccc(C)cc3)cc2)CC1` [Compound 11], in assay [1], the concentration for half-maximal inhibition (IC50) was found to be 1100 nM.
`CC(C)(C)OC(=O)N1CCN(c2cnc(NCc3ccc(-c4ccc(C#N)cc4)o3)nc2)CC1` [Compound 5]: in assay [1], the “5-LOX inhibition, in words” value was “complete loss of inhibition” and the half-maximal inhibitory concentration (IC50) is greater than 150000 nM. The “Reductive activity (pseudoperoxidase activity)” value (from here on “Reductive activity”) on 5-LOX is given as “No”.
Regarding `CC(C)(C)OC(=O)N1CCN(c2ccc(NCc3ncc(-c4ccc(C#N)cc4)o3)cc2)CC1` [Compound 9], the half-maximal inhibitory concentration (IC50) in assay [1] was determined as 1500 nM.
Consider `CC(C)(C)OC(=O)N1CCN(c2ncc(NCc3ccc(-c4ccc(C#N)cc4)o3)cn2)CC1` [Compound 4], for which, in assay [1], the “5-LOX inhibition, in words” value is “complete loss of inhibition” and the IC50 was greater than 150000 nM. Moreover, the “Reductive activity” value on 5-LOX is “No”.
Take `CC(C)(C)OC(=O)N1CCN(c2ccc(NCc3cnc(-c4ccc(C#N)cc4)o3)cc2)CC1` [Compound 8]: the concentration for half-maximal inhibition (IC50) in assay [1] came out at 100 nM.
Take `CN(Cc1ccc(-c2ccc(C#N)cc2)o1)c1ccc(N2CCN(C(=O)OC(C)(C)C)CC2)cc1` [Compound 7]: the IC50 in assay [1] was determined as 2700 nM. In addition, the “Reductive activity” value on 5-LOX is given as “Yes”.
As for `CC(=O)N1CCN(c2ccc(NCc3ccc(-c4ccc(Br)cc4)o3)cc2)CC1` [Compound 12], the IC50 in assay [1] was determined as 2600 nM.
For the compound `CC(C)(C)OC(=O)N1CCN(c2ccc(OCc3ccc(-c4ccc(C#N)cc4)o3)cc2)CC1` [Compound 3], in assay [1], the “5-LOX inhibition, in words” value is “complete loss of inhibition” and the half-maximal inhibitory concentration (IC50) was greater than 150000 nM. Further, at 5-LOX, the “Reductive activity” value is recorded as “No”.
For `CC(C)(C)OC(=O)N1CCC(c2ccc(NCc3ccc(-c4ccc(C#N)cc4)o3)cc2)CC1` [Compound 2], in that order: “complete loss of inhibition”, greater than 150000 nM and “No”.
For the compound `CC(C)(C)OC(=O)N1CCN(c2ccc(NCc3nnc(-c4ccc(C#N)cc4)o3)cc2)CC1` [Compound 10], the concentration for half-maximal inhibition (IC50) in assay [1] was greater than 150000 nM. Further, the “decrease in 5-LOX potency” value in assay [1] (relative to the other analogues of Figure 3) is “greater than 10 fold”.
